Target: T1, tyrosine-protein kinase Yes (Homo sapiens, UniProt P07947)
T1 construct: gene YES1
Test: reference inhibitor in ADP-Glo kinase assay, recombinant human Yes; no value given
Format: biochemical

T1 sequence (P07947 2-543): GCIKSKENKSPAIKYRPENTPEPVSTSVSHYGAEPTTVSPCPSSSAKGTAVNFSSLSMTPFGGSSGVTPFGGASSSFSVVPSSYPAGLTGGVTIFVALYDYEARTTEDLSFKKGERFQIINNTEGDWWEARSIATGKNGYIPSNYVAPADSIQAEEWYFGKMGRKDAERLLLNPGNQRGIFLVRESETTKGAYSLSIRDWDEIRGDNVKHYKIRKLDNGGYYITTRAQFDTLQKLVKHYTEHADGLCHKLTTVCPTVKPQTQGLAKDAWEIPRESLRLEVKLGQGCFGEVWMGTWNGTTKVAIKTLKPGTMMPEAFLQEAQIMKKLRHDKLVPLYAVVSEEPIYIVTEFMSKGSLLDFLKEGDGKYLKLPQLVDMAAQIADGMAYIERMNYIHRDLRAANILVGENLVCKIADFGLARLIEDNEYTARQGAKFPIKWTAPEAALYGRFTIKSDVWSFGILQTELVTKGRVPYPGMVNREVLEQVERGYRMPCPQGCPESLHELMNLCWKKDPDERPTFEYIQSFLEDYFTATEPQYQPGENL

SMILES: CN[C@@H]1C[C@H]2O[C@@](C)([C@@H]1OC)n1c3ccccc3c3c4c(c5c6ccccc6n2c5c31)C(=O)NC4 [Staurosporine]
- reference inhibitor in ADP-Glo kinase assay, recombinant human Yes; no value pri: Staurosporine, a well-known pan-kinase inhibitor typically used as a reference in kinase assays, was selected as an active inhibitor for Yes
